Assay [1] has as its system purified Taenia solium cysteine protease. Put plainly: Competitor assay of low Vmax substrates (vehicles) against high Vmax substrate cocktails (Step III), purified protease. The format is biochemical. The settings on record: purified protease; for inhibition in the presence of the 1.4% cocktail: 1.4% cocktail = Z-FR-AFC 1X10^-6M; for inhibition with the final cocktail (7.4%): 7.4% cocktail = Z-FR-AFC + Z-FAR-AFC + Z-AAK-AFC + AP-AFC + Z-VLR-AFC, 1X10^-6 M each, vehicle 8X10^-6 M. The procedure: (We employed "Vmax" here although Kcat could also be used). Due to the lower number of substrates, a percentage was not chosen for the "BOTTOM %" " substrates. Alternately, all substrates which were not cleaved as determined by a value of 10 uM/hr or less, were chosen to be tested in this step for competitive ability. From this point forth, the term "vehicle" will represent low Vmax substrates that were capable of inhibiting cleavage of the percent cocktails. In this instance, we tested for "vehicles" which inhibited cleavage of the TOP 1.4% cocktail (they were delivered into the active site). Based upon our results from Step II, the top 1.4% cocktail was composed of Z-Phe-Arg-AFC, the highest cleaved substrate.
(§1) The experiment began with a competitor test between the noncleaved low Vmax substrates and the highest Vmax substrate, Z-Phe-Arg-AFC. Concentrations were varied between the low Vmax substrate and Z-Phe-Arg-AFC, as described above under "refinement of assay" until a relative inhibition profile was obtained.
The mixture was allowed to equilibrate for a period of 30 minutes. Finally, active purified enzyme was added to the tubes at a concentration which was always 50 times less than the concentration of the high and low Vmax substrates, in order to insure saturation conditions. This concentration varied from purification to purification and the amount added depended upon the yield and specific activity of the purified protease.
Positive controls were set up similarly as described for test controls, except that solvent was added in substitution for the low Vmax substrate (in a volume equal to the low Vmax volume addition). All of the substrates could be dissolved in dimethylsulfoxide (DMSO), and therefore, this was the solvent of choice. Negative controls were set up by adding the low Vmax and the high Vmax substrate in a tube without the protease. All potential non-proteolytic induced liberation of AFC was therefore controlled for in this tube (a feature which also insured stability of the AFC substrates, since these substrates will freely liberate AFC when unstable). A tube set will be established for this negative control.
All controls were set up in triplicate, and experiments repeated a minimum of five times. The assays were incubated at 37°C, for 18 hours overnight.
(§2) Percent inhibition was calculated as: %Inhibition =; ((AFC positive for"Y"-AFC negative for"Y")-(AFC test-AFC negative for"Y")X100)/(AFC positive for "Y"-AFC negative for "Y") [formula]
A 2.9% cocktail of the high Vmax substrates was made. This was composed of Z-FR-AFC and the second most cleaved substrate, Z-FAR-AFC. The vehicles promoted from the initial screenings above were again tested for competitive inhibition ability with the new cocktails. Their concentrations were set identically to those which were "fixed" in the previous protocols. In other words, 8X10^-6M of the vehicle was added to the culture tube with 1X10^-6 M of Z-FR-AFC and 1X10^-6 M of Z-FAR-AFC. Active protease was added last at a concentration that was 50 times less than the concentration of the high Vmax substrate (to ensure saturating conditions).
In similar experimental fashion, a 4.4%, 5.9%, and 7.4% cocktail were tested with each of the promising vehicles. Each percentage point represented an increase by one substrate. Each of the individual components in the cocktail were added at 1X10^-6 M each, to 8X10^-6 M of the vehicle. The composition of the cocktails was as follows: 4.4% cocktail: Z-FR-AFC, Z-FAR-AFC, and Z-AAK-AFC (third highest cleaved substrate); 5.9% cocktail: Z-FR-AFC, Z-FAR-AFC, Z-AAK-AFC, and AP-AFC (fourth highest cleaved substrate); 7.4% cocktail: […], Z-FAR-AFC, Z-AAK-AFC, AP-AFC, and Z-VLR-AFC. We stopped at this number of substrates in the cocktail, since confidence was obtained that inhibitory potential of vehicles could be "diluted out."
Finally, a manageable set of candidate vehicles was determined. […]

Assay [2] shares this test system. Put plainly: Inhibition assay of protease inactivators against the high Vmax cocktail, EC100 and Ki ranking (Step VII B). The format is biochemical. An excerpt:
Once the protease inactivators were synthesized in the organic laboratory, they were to be tested for the lowest efficacious concentrations at which they induced 100% inhibition of the target protease (EC100). The top percent cocktail that was employed in the final vehicle selection step of Step III was employed as the source of competition for the inhibitors. In this case, this was the […] which was comprised of Z-FR-AFC, Z-FAR-AFC, Z-AP-AFC, Z-AAK-AFC, and Z-VLR-AFC. The final result would be a ranking of transition state candidate protease inactivators with a high ranking directly correlating to a low EC100 value. The following steps describe the assay:
Step A: Initial Screening. To set up the test control, each protease inactivator was first incubated with the […] (which provided the final differentiation of vehicles in Step III). To begin with, the protease inactivator was incubated at a concentration of 3 X 10^-9M in 500 ul of assay buffer ([…], pH 4.9 supplemented with 10mM L-cysteine). This concentration was determined, after a series of inhibitor dilutions identified, to be the best inhibitor concentration at which a differentiation in inhibitor potential could be noted. Next, a concentration equal to 4 X 10^-5M for each of the individual cocktail components, was added to the mix. The components were allowed to equilibrate for a period of 30 minutes. Finally, active purified enzyme was added to the tubes at a concentration which was always at least 50 times less than the concentration of the lowest concentration in the mix (to provide saturating conditions.) This concentration varied from purification to purification and the amount added depended upon the yield and specific activity of the purified protease.
Positive controls were set up similarly as described for test controls, except that solvent was added in substitution for the protease inactivator (in a volume equal to the […] volume addition). All of the protease inactivators could be dissolved in dimethylsulfoxide (DMSO), and therefore, this was the solvent of choice. Negative controls were set up by adding the protease inactivator and the cocktail substrates in a tube, without the protease. All potential non-proteolytic induced liberation of AFC was therefore controlled for in this tube (a feature which also insured stability of the AFC substrates, since these substrates will freely liberate AFC when unstable).
All controls were set up in triplicate, and experiments repeated a minimum of five times. The assays were incubated at 37°C, overnight. Percent inhibition was calculated as: % Inhibition = ((AFC positive for ʺSIʺ-AFC negative for ʺSIʺ)-(AFC test-AFC negative for ʺSIʺ))/(AFC positive for ʺSIʺ-AFC negative for ʺSIʺ) × 100 [formula]
Because of this, a dilution study was required in order to determine a viable ranking. Thus, the concentration of each of the protease inactivators was lowered with a dose response setup until the most efficacious concentration for 100% inhibition (EC100) could be determined. […] The final result of the assay was a ranked candidate list of protease inactivators. A lower EC100 was attributable to a higher ranking and vice-versa.
In order to determine Ki, all of the high Vmax cocktail substrates were employed for Ki determination (since Ki of the inhibitor for the enzyme is the same regardless of the substrate). To insure the highest accuracy, Ki was to be determined upon a minimum of at least three of the high Kcat substrates. Nonlinear fitting and the Dixon plot were both employed to determine Ki of the top ranked protease inactivators. A further plot was constructed using either Eadie Hofstee as well as Hanes to determine the mode of inhibition. These methods were used in order to determine the type of inhibition.

Assay [3] shares this test system. The assay is described as follows: Substrate cleavage screen of AFC-linked synthetic substrates (Step II), purified protease. Format: biochemical. The settings on record: 1 ug purified protease, 1 ug substrate, Citrate pH 4.9 with 0.01 M cysteine, 18 h, 37 °C. The procedure:
In this step, the most efficacious substrate for detection of the cysteine protease (high Kcat substrate) was determined in vitro along with those substrates which were not well cleaved (low kcat substrates). From this point forth, the following conditions refer to all assays: "assay buffer" refers to 0.4 M Citrate, pH 4.9 (the pH optima of the protease). Incubation time was 18 hours at 37°C. These conditions were determined by our preliminary data to be best for kinetic evaluation of the protease. […] The experiments were conducted in […] Borosilicate mini-culture tubes (Fisher Scientific), and a fluorometer (Turner) was employed for detection of AFC cleavage.
Approximately 1 ug (or a proteolytically detectable amount) of the purified target cysteine protease was incubated individually, with 1 ug of each of the available substrates in 500 uL of assay buffer. During this setup, the substrate was pre-incubated in the assay buffer for a short period of time (20 minutes) in order to reach an equilibrated status before the addition of the protease. Cleavage assessments were based upon the property of the protease to cleave synthetic peptide substrates linked at the C-terminus to 7-Amino-4-Trifluoromethyl Coumarin (AFC) as previously described. AFC linked tripeptides, dipeptides, and monopeptides, (with a variety of permutations at P3-P1) were available from Enzyme Systems Products (Livermore, CA), and were used as the source of the subset. Following incubation of enzyme preparations overnight (18 h, 37 °C) with peptide in assay buffer (Citrate, pH 4.9, supplemented with 0.01 M cysteine), free AFC concentrations were measured fluorometrically (excitation 405 nm, emission 505 nm). The proteolytic cleavage released the AFC group, which was measurable as a free molecule by a standard fluorometer and converted into molar quantities, based upon a previously established standard curve. The simplicity of AFC detection by the fluorometer was a key factor which quickened and simplified the procedures.
In the assay, 1 ug of the purified Taenia cysteine protease was added to a saturating amount of Z-Phe-Arg-AFC (4X10^-5 M) in assay buffer. The experiment was conducted in triplicate and repeated at least 5 times until we were certain that variability in AFC cleavage was not statistically significant.
Vmax was calculated for the cleavage of substrates by the purified target protease and Vmax was calculated for substrates cleaved by the crude mix protease using conventional kinetic modeling calculations already described in the art.

In a further assay the test system is Taenia crassiceps cysts. Put plainly: Short-term prophylactic protection of BALB/c mice from cysticercosis infection. The settings on record: pre-injected two days, 10 T. crassiceps cysts/mouse, dosed daily for four weeks, cysts counted after one month, versus untreated controls. The format is in vivo.
The next assay has as its system Taenia solium crude mix. Put plainly: Competitor assay of vehicles against high Vmax substrate cocktails (Step III), crude mix. The format is biochemical. The protocol:
Step III for a crude mix proceeds it would for a purified protease, except that Vm is used instead of kcat.
as §1, §2
One of the most intriguing findings in this experiment was that a highly similar inhibition pattern for the competitor assay was noted when the crude mix was employed as the source of the target protease. Although there were some variations in the effects of inhibitor dilution, the most highly ranked vehicles remained inhibitory consistently in comparison to the profile with the target protease. The relative profile and composition of the top tiers of vehicles was identical. Z-LLL-AFC, Z-LLY-AFC, Mu-LY-AFC, Boc-VPR-AFC, Z-SY-AFC, Z-RR-AFC, Z-FLF-AFC, Z-LGR-AFC consistently presented as the top eight vehicles (Fig. 5b), respectively, based upon their V values (Table 2). […] It was notable that the three vehicles had very similar V values. […] As was mentioned, this vehicle along with Z-LLL-AFC and Z-LLY-AFC, were consistently the most inhibitory vehicles. The V values of the most inhibitory vehicle series are shown below in Table 2. Again, a clear break between the first and second tier vehicles could be noted with the V value. Table 2. Vehicles and V value rankings.

Residues, ends and D or L forms follow the SMILES beside them. *: point of attachment. AFC = O=c1cc(C(F)(F)F)c2ccc(N*)cc2o1; MeOSuc = COC(=O)CCC(=O)*; Cbz = O=C(OCc1ccccc1)*

`CC(C)C[C@H](NC(=O)OCc1ccccc1)C(=O)N[C@@H](CCCNC(=N)N)C(=O)N[C@@H](CCCNC(=N)N)C(=O)Nc1ccc2c(C(F)(F)F)cc(=O)oc2c1` [Z-LRR-AFC] (Cbz-Leu-Arg-Arg-{AFC}): the “inhibition in the presence of the 1.4% cocktail” value in assay [1] (vehicle 8X10^-6M) was “greater than 20%”.
In the case of `CC(C)C[C@@H](/C=C/S(C)(=O)=O)NC(=O)[C@H](CC(C)C)NC(=O)[C@H](CC(C)C)NC(=O)OCc1ccccc1` [Z-LLL-VS, Z-Leu-Leu-Leu-vinylsulfone], the “ranking of protease inactivators by EC100” value in assay [2] (dilution study, nanomolar levels) is “top inhibitors”.
In the case of `CC(C)C[C@H](NC(=O)OCc1ccccc1)C(=O)NCC(=O)N[C@@H](CCCNC(=N)N)C(=O)Nc1ccc2c(C(F)(F)F)cc(=O)oc2c1` [Z-LGR-AFC, Z-Leu-Gly-Arg-AFC] (Cbz-Leu-Gly-Arg-{AFC}), the “cleavage of AFC-linked substrate (Vmax)” value in assay [3] is reported as “noncleavable”. In assay [1] (vehicle 8X10^-6M), the “inhibition in the presence of the 1.4% cocktail” value is “greater than 20%”. Besides, the “inhibition with the final cocktail (7.4%)” value in assay [1] is “less than 20%”.
With “Leu-Phe-Ketoamide-Pyridyl [K-Pyr, reference compound]”, the “% Inhibition of T. solium CP in vitro” value in assay [2] (in vitro, concentration not stated in Table 4) was found to be 80%. The “% Prophylactic protection of BALB/c mice” value with Taenia crassiceps cysts worked out at 40%.
`N[C@@H](CCC(=O)O)C(=O)N[C@@H](Cc1ccc(O)cc1)C(=O)Nc1ccc2c(C(F)(F)F)cc(=O)oc2c1` [EY-AFC, reference compound] (H-Glu-Tyr-{AFC}): the “cleavage of AFC-linked substrate (Vmax)” value in assay [3] is listed as “not cleaved”.
Turning to `COC(=O)CCC(=O)N[C@@H](Cc1ccccc1)C(=O)N[C@@H](CC(C)C)C(=O)N[C@@H](Cc1ccccc1)C(=O)Nc1ccc2c(C(F)(F)F)cc(=O)oc2c1` [MeoSuc-FLF-AFC, reference compound] (MeOSuc-Phe-Leu-Phe-{AFC}), the “cleavage of AFC-linked substrate (Vmax)” value in assay [3] was “not cleaved”.
For `N=C(N)NCCC[C@H](NC(=O)OCc1ccccc1)C(=O)N[C@@H](CCCNC(=N)N)C(=O)Nc1ccc2c(C(F)(F)F)cc(=O)oc2c1` [Z-RR-AFC] (Cbz-Arg-Arg-{AFC}), in assay [1], the “inhibition with the final cocktail (7.4%)” value is listed as “less than 20%”. The “V Value” in assay [1] (V = P * M, P = inhibition with first (1.4%) cocktail, M = inhibition with last (7.4%) cocktail, vehicle 8X10^-6M, each cocktail substrate 1X10^-6 M) is recorded as 0.09; in the assay on Taenia solium crude mix (V = P * M), 0.09. For the same molecule, in the assay with Taenia solium crude mix, the Tier is on record as 2 (The second tier was composed of those vehicles, which produced inhibition between 20-50% inhibition when in the presence of the 1.4% cocktail).

The values are drawn from patent publication EP1276895B1, “METHOD FOR THE IDENTIFICATION OF ACTIVE SITE PROTEASE INACTIVATORS” (THE UNIVERSITY OF GEORGIA RESEARCH FOUNDATION, INC., priority 2000, dated 2001).
